Drawing on ChEMBL document CHEMBL6074640, “Novel Heteroaryl Fluoroalkenes as DGK Inhibitors for Treating Cancer, Particularly Metastatic Melanoma” (ACS Med Chem Lett, 2024), this text covers IC50 for five compounds.

What is called IC50 is the concentration that inhibits the measured activity by half.

A value given as a limit tells only on which side of the number the result lay.

Diacylglycerol kinase alpha, sequence (P23743 whole entry): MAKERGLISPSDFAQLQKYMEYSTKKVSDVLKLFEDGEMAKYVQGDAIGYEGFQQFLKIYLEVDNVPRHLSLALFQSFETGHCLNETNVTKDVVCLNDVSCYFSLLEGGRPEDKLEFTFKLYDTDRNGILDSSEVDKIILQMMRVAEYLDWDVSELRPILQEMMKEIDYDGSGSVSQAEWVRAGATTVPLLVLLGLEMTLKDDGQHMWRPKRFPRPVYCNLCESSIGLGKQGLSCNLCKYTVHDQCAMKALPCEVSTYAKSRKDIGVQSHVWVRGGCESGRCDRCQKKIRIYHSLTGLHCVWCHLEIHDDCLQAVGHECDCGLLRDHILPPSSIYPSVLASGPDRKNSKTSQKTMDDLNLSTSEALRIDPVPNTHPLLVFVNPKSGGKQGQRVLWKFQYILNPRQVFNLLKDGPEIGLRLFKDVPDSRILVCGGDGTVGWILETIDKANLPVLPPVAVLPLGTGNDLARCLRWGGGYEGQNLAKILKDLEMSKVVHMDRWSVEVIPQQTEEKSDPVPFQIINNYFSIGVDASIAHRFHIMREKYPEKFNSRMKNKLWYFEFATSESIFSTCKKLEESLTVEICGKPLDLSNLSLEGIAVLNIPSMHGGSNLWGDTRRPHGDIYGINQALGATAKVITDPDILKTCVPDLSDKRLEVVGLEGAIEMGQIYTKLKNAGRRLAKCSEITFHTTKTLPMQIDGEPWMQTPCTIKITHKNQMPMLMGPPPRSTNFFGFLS

The assay addresses Diacylglycerol kinase alpha (Homo sapiens, UniProt P23743). Nature of the assay: Inhibition of His-tagged recombinant human DGKalpha using DLG as substrate preincubated with substrate and ATP for 1 mins followed by compound addition and measured after 90 mins by ADP-Glo kinase assay. On the technique in general: ADP-Glo first removes unused ATP, then detects ADP through luciferase.
On to `CCN1CCC2(CCCN(c3c(/C=C(\F)c4nccc(N5CC(F)(F)C5)n4)ccc(Oc4ccccc4F)c3C(F)(F)F)C2)CC1`, for which the IC50 was not above 20 nM.
The result for `NC[C@H]1CCCN1c1c(/C=C(\F)c2nccc(-c3ccnnc3)n2)ccc(Oc2ccccc2)c1Cl` reads not above 20 nM.
With `F/C(=C\c1ccc(Oc2ccccc2F)c(C(F)(F)F)c1N1CCCC2(CCN(CC3CC3)CC2)C1)c1nccc(-c2cnsc2)n1` the figure was not above 20 nM; with `CCN1CCC2(CC1)CN(c1c(/C=C(\F)c3nccc(-c4ccnnc4)n3)ccc(Oc3ccccc3)c1C(F)(F)F)CCO2`, not above 20 nM; with `COc1cc(F)ccc1Oc1ccc(/C=C(\F)c2nncc(N3CCC(F)(F)C3)n2)c(N2CCC[C@@H](CN)C2)c1Cl`, not above 20 nM.
